Experimental data reported in US20250289827A1, “MORPHIC FORMS OF A MUTANT BRAF DEGRADER AND METHODS OF MANUFACTURE THEREOF” (C4 THERAPEUTICS, INC., priority 2022, published 2025).

Columns and labels:
[1] = Plasma and brain pharmacokinetics in A375-luciferase intracranial model; set-up: species or system BALB/c nude mice; details: mouse, in vivo
Experimental: To determine the level of CNS and plasma exposure of Compound 1 compared to encorafenib, a separate pharmacokinetics/pharmacodynamics (PK/PD) study was conducted. Mice were inoculated with luciferase tagged A375 cells as stated above. The tumors were left to establish and expand for 14 days before the study. […] Samples from 3 mice per treatment group were collected at 1, 12, 24, and 48 hours. To test the plasma samples, the mice were anesthetized, and blood was collected into a tube with EDTA-K2, centrifuged, transferred to a fresh tube, and stored frozen. Following blood collection, the mice were perfused for fifteen minutes, decapitated, and the brain was collected and frozen. The harvested plasma and brain were processed for pharmacokinetics analysis by LC/MS/MS with a concentration range of 1-1,000 ng/mL and pharmacodynamics analysis by Western Blot. The concentrations of Compound 1 and encorafenib found in the plasma is shown in FIG. 42, and the concentration found in the brain is shown in FIG. 43.

[2] = Solubility in spray drying solvent system; type: physicochemical; details: 80:20 dichloromethane:methanol, organic solvent or mixture
Excerpt: The stability of the SDI was supported by XRPD and HPLC purity and assay data. The secondary drying parameters were established to ensure adequate SDI stability during drying and that the ICH limits for residual dichloromethane and methanol can be met. Through a feasibility batch and an engineering batch, an SDI manufacturing process is established.

A375 cells = test: A375 cell growth inhibition; type: cell-based; details: Homo sapiens, A-375, 96 hr
ERK phosphorylation = test: Inhibition of ERK phosphorylation in A375 cells; type: cell-based; details: Homo sapiens, A-375, 24 hr
[3] = Crystallization at room temperature by slow evaporation; type: physicochemical
Experimental: About 30 mg of Compound 1 Form A was dissolved in 0.2-10 mL of solvents. Obtained solutions were filtered through a 0.45 μm syringe membrane filter. […] Solid residues were investigated by XRPD.

[4] = Stability study for Compound 1 Form A (storage conditions); type: physicochemical
[5] = Equilibration with solvents at 25° C. for 4 weeks (XRPD); type: physicochemical
Experimental: About 50 mg of Compound 1 free Form A was equilibrated in 0.1-1 mL of solvents at 25° C. for 4 weeks with a stirring bar on a magnetic stirring plate at a rate of 300 rpm. The obtained suspensions were filtered through a 0.45 μm nylon membrane filter by centrifugation at 14,000 rpm. Solid parts (wet cakes) were investigated by XRPD.

[6] = Dry grinding simulation experiments; type: physicochemical
Experimental: About 20 mg of Compound 1 Form B was ground manually with a mortar and a pestle for 1, 2 and 5 min. Potential form change, and degree of crystallinity were evaluated by XRPD.

[7] = 25° C. ± 2° C./60% RH ± 5% RH, 3 M
[8] = 25° C. ± 2° C./60% RH ± 5% RH, 6 M
[9] = 40° C. ± 2° C./75% RH ± 5% RH, 3 M
[10] = 40° C. ± 2° C./75% RH ± 5% RH, 6 M
[11] = Acetone/water (v:v = 86:14) a.w. = 0.6
[12] = Acetonitrile/water (v:v = 96:4) a.w. = 0.6
[13] = DMF/water (v:v = 73:27) a.w. = 0.6
[14] = Methanol/water (v:v = 69:31) a.w. = 0.6
[15] = THF/water (v:v = 82:18) a.w. = 0.9
[16] = THF/water (v:v = 92:8) a.w. = 0.6

CCN(C)S(=O)(=O)Nc1ccc(F)c(Oc2ccc3ncn([C@H]4COC5(CCN(C(=O)CC6(O)CCN(c7cc8c(cc7F)c(N7CCC(=O)NC7=O)nn8C)CC6)CC5)C4)c(=O)c3c2)c1C#N [Compound 1, (3R)-3-[6-[2-cyano-3-[[ethyl(methyl)sulfamoyl]amino]-6-fluorophenoxy]-4-oxoquinazolin-3-yl]-8-[2-[1-[3-(2,4-dioxo-1,3-diazinan-1-yl)-5-fluoro-1-methylindazol-6-yl]-4-hydroxypiperidin-4-yl]acetyl]-1-oxa-8-azaspiro[4.5]decane]
Blood brain barrier penetration [1]: high level of blood brain barrier penetration | solubility [2]: > 100 mg/mL | GI50 (A375 cells): 94 nM | IC50 (ERK phosphorylation): 11 nM

CCN(C)S(=O)(=O)Nc1ccc(F)c(Oc2ccc3ncn([C@H]4COC5(CCN(C(=O)CC6(O)CCN(c7cc8c(cc7F)c(N7CCC(=O)NC7=O)nn8C)CC6)CC5)C4)c(=O)c3c2)c1C#N [Compound 1 Form A]
Comments ([3]; 1,4-Dioxane): Glassy material | Comments ([3]; Acetone): Glassy material | XRPD ([3]; Acetonitrile): Amorphous form | XRPD ([3]; DCM): Almost amorphous form | XRPD ([3]; DCM/methanol (v:v = 1:1)): Almost amorphous form | XRPD ([3]; Ethyl acetate): Amorphous form | XRPD ([3]; Methanol): Almost amorphous form | Comments ([3]; Methyl ethyl ketone): Glassy material | Comments ([3]; THF): Glassy material | Appearance ([4]; 5 ± 3° C., 6 M): white solid | Assay by UPLC (% w/w) ([4]; 5 ± 3° C., 6 M): 92.0% w/w | Chiral purity by HPLC (% area) ([4]; 5 ± 3° C., 6 M): 99.2% area | Related Substances by UPLC (% area), Total Impurities ([4]; 5 ± 3° C., 6 M): 2.8% area | Water Content by KF (% w/w) ([4]; 5 ± 3° C., 6 M): 4.7% w/w | XRPD ([4]; 5 ± 3° C., 6 M): Form A | Stability study outcome (appearance, water content, chiral purity, assay, related substance) ([4]; 5 ± 3° C., 25° C./60% RH, 30° C./65% RH, 40° C./75% RH): meet the acceptance criteria | Assay by UPLC (% w/w) [4, 7]: 93.3% w/w | Chiral purity by HPLC (% area) [4, 7]: 99.2% area | Related Substances, UPLC (% area), Total Impurities [4, 7]: 2.6% area | Water Content by KF (% w/w) [4, 7]: 3.6% w/w | XRPD [4, 7]: Form A | Assay by UPLC (% w/w) [4, 8]: 92.9% w/w | Chiral purity by HPLC (% area) [4, 8]: 99.2% area | Related Substances, UPLC (% area), Total Impurities [4, 8]: 2.9% area | Water Content by KF (% w/w) [4, 8]: 4.2% w/w | XRPD [4, 8]: Form A | Appearance ([4]; 30 ± 2° C./65 ± 5% RH, 6 M): white solid | Assay by UPLC (% w/w) ([4]; 30 ± 2° C./65 ± 5% RH, 6 M): 92.4% w/w | Chiral purity by HPLC (% area) ([4]; 30 ± 2° C./65 ± 5% RH, 6 M): 99.2% area | Related Substances, UPLC (% area), Total Impurities ([4]; 30 ± 2° C./65 ± 5% RH, 6 M): 3.0% area | Water Content by KF (% w/w) ([4]; 30 ± 2° C./65 ± 5% RH, 6 M): 3.8% w/w | XRPD ([4]; 30 ± 2° C./65 ± 5% RH, 6 M): Form A | Assay by UPLC (% w/w) [4, 9]: 92.2% w/w | Chiral purity by HPLC (% area) [4, 9]: 99.2% area | Related Substances, UPLC (% area), Total Impurities [4, 9]: 2.7% area | Water Content by KF (% w/w) [4, 9]: 3.9% w/w | XRPD [4, 9]: Form A | Assay by UPLC (% w/w) [4, 10]: 92.5% w/w | Chiral purity by HPLC (% area) [4, 10]: 99.2% area | Related Substances, UPLC (% area), Total Impurities [4, 10]: 3.3% area | Water Content by KF (% w/w) [4, 10]: 4.5% w/w | XRPD [4, 10]: Form A | Appearance ([4]; Initial): white solid | Assay by UPLC (% w/w) ([4]; Initial): 97.3% w/w | Chiral purity by HPLC (% area) ([4]; Initial): 99.2% area | Related Substances by UPLC (% area), Total Impurities ([4]; Initial): 2.6% area | Water Content by KF (% w/w) ([4]; Initial): 0.59% w/w | XRPD ([4]; Initial): Form A | Water content trend ([4]; each stability condition): increased overtime | Comments ([5]; 1,4-Dioxane/heptane (v:v = 1:1)): Sticky material | Comments ([5]; 2-MeTHF): Medium crystallinity | XRPD (solid form after equilibration) ([5]; 2-MeTHF): Form C | Comments ([5]; Acetone): Medium crystallinity | XRPD (solid form after equilibration) ([5]; Acetone): Form B | XRPD (solid form after equilibration) ([5]; Acetone/water (v:v = 36:64) a.w. = 0.9): Almost amorphous | Comments [5, 11]: Clear solution | Comments: concentration of clear solution [5, 11]: (about 500 mg/mL) | Comments ([5]; Acetonitrile): Medium crystallinity | XRPD (solid form after equilibration) ([5]; Acetonitrile): Form B | Comments ([5]; Acetonitrile/water (v:v = 42:58) a.w. = 0.9): Sticky material | Comments (crystallinity) [5, 12]: Medium | XRPD (solid form after equilibration) [5, 12]: Form B | Comments ([5]; DCM/heptane (v:v = 1:1)): Sticky material | Comments ([5]; DCM/methanol (v:v = 1:1)): Clear solution | Comments: concentration of clear solution ([5]; DCM/methanol (v:v = 1:1)): (about 500 mg/mL) | Comments ([5]; DMF): Clear solution | Comments: concentration of clear solution ([5]; DMF): (about 500 mg/mL) | XRPD (solid form after equilibration) ([5]; DMF/water (v:v = 30:70) a.w. = 0.9): Almost amorphous | Comments [5, 13]: Clear solution | Comments: concentration of clear solution [5, 13]: (about 500 mg/mL) | XRPD (solid form after equilibration) ([5]; DMSO/water (v:v = 23:77) a.w. = 0.9): Almost amorphous | XRPD (solid form after equilibration) ([5]; DMSO/water (v:v = 57:43) a.w. = 0.6): Almost amorphous | Comments ([5]; Ethanol): Low crystallinity | XRPD (solid form after equilibration) ([5]; Ethanol): Form A | Comments ([5]; Ethyl acetate): Medium crystallinity | XRPD (solid form after equilibration) ([5]; Ethyl acetate): Form C* | Comments ([5]; Isopropanol): Low crystallinity | XRPD (solid form after equilibration) ([5]; Isopropanol): Form A | Comments ([5]; Isopropyl acetate): Low crystallinity | XRPD (solid form after equilibration) ([5]; Isopropyl acetate): Form A | Comments ([5]; MTBE): Low crystallinity | XRPD (solid form after equilibration) ([5]; MTBE): Form A | Comments ([5]; Methanol): Low crystallinity | XRPD (solid form after equilibration) ([5]; Methanol): Form B | XRPD (solid form after equilibration) ([5]; Methanol/water (v:v = 22:78) a.w. = 0.9): Almost amorphous | Comments [5, 14]: Low crystallinity | XRPD (solid form after equilibration) [5, 14]: Form B | Comments ([5]; Methyl ethyl ketone): Medium crystallinity | XRPD (solid form after equilibration) ([5]; Methyl ethyl ketone): Form B | Comments ([5]; THF/heptane (v:v = 1:1)): Medium crystallinity | XRPD (solid form after equilibration) ([5]; THF/heptane (v:v = 1:1)): Form B | Comments [5, 15]: Clear solution | Comments: concentration of clear solution [5, 15]: (about 500 mg/mL) | Comments [5, 16]: Clear solution | Comments: concentration of clear solution [5, 16]: (about 500 mg/mL) | Comments ([5]; Toluene): Low crystallinity | XRPD (solid form after equilibration) ([5]; Toluene): Form A

CCN(C)S(=O)(=O)Nc1ccc(F)c(Oc2ccc3ncn([C@H]4COC5(CCN(C(=O)CC6(O)CCN(c7cc8c(cc7F)c(N7CCC(=O)NC7=O)nn8C)CC6)CC5)C4)c(=O)c3c2)c1C#N [Compound 1 Form B]
Morphic form stability under dry grinding [6]: excellent morphic form stability | Comments ([6]; grinding time 1 min): Slight decrease in crystallinity. | XRPD ([6]; grinding time 1 min): Form B | Comments ([6]; grinding time 2 min): Slight decrease in crystallinity. | XRPD ([6]; grinding time 2 min): Form B | Comments ([6]; grinding time 5 min): Slight decrease in crystallinity. | XRPD ([6]; grinding time 5 min): Form B
